These results are taken from US12679878B2, “CRF2 receptor agonists and their use in therapy” (SANOFI, priority 2020, dated 2026).

Starred links: 1 amine or outer side, 2 acyl side, 3 side chain; linkers in the order of their positions; H or OH if unused. Non-standard residues stand in square brackets, D forms with d. Residues, ends and D or L forms follow the SMILES beside them. Groups on a side chain read outwards from the residue. *: point of attachment. C18 diacid = O=C(O)CCCCCCCCCCCCCCCCC(=O)*; γGlu = O=C(O)[C@H](CCC(=O)[*:2])N[*:1]; AEEA = NCCOCCOCC(=O)O; Aib = CC(C)(N)C(=O)O

A short description of data set [1]: Pharmacokinetic properties in rats, i.v. or s.c. (Example 16). The class given is in vivo, SD rat. The following applies: Rat. The protocol:
(§1) The pharmacokinetic properties of exemplary peptides SEQ ID NO: 35 and SEQ ID NO: 24 were assessed in mice and rats.
(§2) The test compound was administered in a suitable buffer system (PBS buffer solution at pH 7.4, or DPBS solution) at concentrations of 0.05, 0.1, 0.5 or 1 mg/ml depending on the dose, species and administration volume. Female C57BI/6 mice and male SD rate were dosed 0.1 mg/kg or 0.3 mg/kg intravenously or subcutaneously. The animals were sacrificed, and blood samples were collected after 0.08, 0.25, 0.5, 1, 2, 4, 8, 24, 32, and 48 hours post-intravenous administration and 0.25, 0.5, 1, 2, 4, 8, 24, 32, and 48 hours post-subcutaneous administration, respectively. Plasma samples were analysed after protein precipitation via liquid chromatography mass spectrometry (LC/MS). Pharmacokinetic parameters and half-life were calculated using Phoenix-WinNonlin 8.1 using a non-compartmental model and linear trapezoidal interpolation calculation.

The nature of data set [2]: Pharmacokinetic properties in mice, i.v. or s.c. (Example 16). It is filed as in vivo, C57BI/6 mice. The following applies: female, C57BL/6, plasma, Mouse. Here is the method:
as §1, §2

In data set [3] the target is T1, endogenous human CRF2 (Homo sapiens, UniProt Q13324).
T1 construct: endogenous in cells; host or cells: NCI-H82
T1 sequence (Q13324 1-411): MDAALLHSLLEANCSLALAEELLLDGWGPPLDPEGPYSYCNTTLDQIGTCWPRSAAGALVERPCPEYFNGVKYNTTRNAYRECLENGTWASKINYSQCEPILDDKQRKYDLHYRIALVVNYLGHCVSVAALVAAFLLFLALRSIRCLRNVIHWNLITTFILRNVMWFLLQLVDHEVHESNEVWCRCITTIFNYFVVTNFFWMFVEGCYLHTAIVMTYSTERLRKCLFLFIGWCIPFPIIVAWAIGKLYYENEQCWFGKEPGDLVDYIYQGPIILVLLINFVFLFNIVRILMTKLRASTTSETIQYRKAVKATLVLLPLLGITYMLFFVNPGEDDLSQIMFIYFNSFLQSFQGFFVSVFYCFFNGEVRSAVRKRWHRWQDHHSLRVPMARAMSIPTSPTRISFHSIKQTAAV
Put plainly: cAMP agonist effect in NCI-H82 cells expressing endogenous human CRF2 (Example 10). The following applies: cAMP HTRF, 5 min activation. The class given is cell-based. Here is the method: The agonist effect of the compounds was assessed in NCI-H82 cells expressing endogenous human CRF2.
NCI-H82 cells in suspension were plated in low-volume 384-well plates at a density of 30000 cells/well in 5 μl of test medium (RPMI+1 mM IBMX). The plates were briefly centrifuged at 800 rpm to allow the cell suspension to move to the bottom of the wells and then incubated for 2 hours at 37° C. in 5% CO2. 5 μl of test compounds at appropriate concentrations (10-11 to 3×10-7) diluted in test medium were then transferred in 384 wells plates. After 5 min of activation, the reaction was stopped by addition of HTRF revelation reagents with a multidrop dispenser. The two reagents were 5 μl/well of Anti-CAMP-cryptate diluted 20-fold in conjugate and lysis buffer and 5 μl/well of cAMP-D2 diluted 20-fold in conjugate and lysis buffer. After one-hour incubation at room temperature in the dark, the plates were read on a Clariostar apparatus.
Background: Time-resolved FRET reads energy transfer from a long-lived donor to a nearby acceptor.

[4] abbreviates: male, Sprague-Dawley (SD), plasma, iv, 0.1 mg/kg i.v.
Where [5] appears, read: male, Sprague-Dawley (SD), plasma, sc, 0.1 mg/kg s.c.

Consider `CC[C@H](C)[C@H](N)C(=O)N[C@H](C(=O)N[C@@H](CC(C)C)C(=O)N[C@@H](CO)C(=O)N[C@@H](CC(C)C)C(=O)N[C@@H](CC(=O)O)C(=O)N[C@H](C(=O)N1CCC[C@H]1C(=O)N[C@H](C(=O)N[C@@H](CCCCN)C(=O)N[C@@H](CC(C)C)C(=O)N[C@@H](CCCCNC(=O)COCCOCCNC(=O)COCCOCCNC(=O)CC[C@H](NC(=O)CCCCCCCCCCCCCCCCC(=O)O)C(=O)O)C(=O)N[C@@H](CCCCN)C(=O)N[C@H](C(=O)N[C@@H](CC(C)C)C(=O)N[C@@H](CC(C)C)C(=O)N[C@@H](CCC(=O)O)C(=O)N[C@@H](CCC(N)=O)C(=O)N[C@@H](CCC(=O)O)C(=O)N[C@@H](CCCCN)C(=O)N[C@@H](CCC(N)=O)C(=O)N[C@@H](CCCCN)C(=O)N[C@@H](CCCCN)C(=O)N[C@@H](CCC(N)=O)C(=O)N[C@@H](CCCNC(=N)N)C(=O)N[C@@H](CCC(=O)O)C(=O)N[C@@H](CCC(N)=O)C(=O)N[C@@H](C)C(=O)N[C@@H](CCC(=O)O)C(=O)N[C@H](C(=O)N[C@@H](CC(N)=O)C(=O)N[C@@H](CCCCN)C(=O)N[C@@H](CCC(N)=O)C(=O)N[C@H](C(=O)N[C@@H](CC(C)C)C(=O)N[C@@H](C)C(=O)N[C@@H](CCC(N)=O)C(=O)N[C@H](C(N)=O)C(C)C)[C@@H](C)CC)[C@@H](C)O)[C@@H](C)CC)[C@@H](C)CC)C(C)C)C(C)C` [compound 35] (H-IVLSLDVPIKLK([AEEA-AEEA-γGlu-C18 diacid])KILLEQEKQKKQREQAETNKQILAQV-NH2; N-terminus assumed), for which the “AUClast” value in data set [1] (0.1 mg/kg i.v.) is 2790 ng·h/mL. Also, the clearance in data set [1] (male, SD, plasma, iv, 0.1 mg/kg i.v., read-out: CI (converted)) was 0.597 mL/min/kg; in data set [2] (iv, 0.3 mg/kg i.v., read-out: CI (converted)), 0.21 mL/min/kg. The compound also gave a bioavailability in data set [1] (male, SD, plasma, sc, 0.1 mg/kg s.c.) of 45.8%. Moreover, the peak concentration (Cmax) in data set [1] (setting [4]) amounted to 1900 ng/mL; in data set [1] (setting [5]), 131 ng/mL; in data set [2] (iv, 0.3 mg/kg i.v.), 4150 ng/mL; in data set [2] (sc, 0.1 mg/kg s.c.) it was 1410 ng/mL. Besides, the half-life was 3 h in data set [1] (setting [4]); 6.1 h in data set [1] (setting [5]); 6.4 h in data set [2] (iv, 0.3 mg/kg i.v.); 5.5 h in data set [2] (sc, 0.1 mg/kg s.c.). For the same compound, the area under the curve AUC(0-t) is 1200 ng·h/mL in data set [1] (setting [5]); 23700 ng·h/mL in data set [2] (iv, 0.3 mg/kg i.v.); 18500 ng·h/mL in data set [2] (sc, 0.1 mg/kg s.c.).

With `CC[C@H](C)[C@H](N)C(=O)N[C@H](C(=O)N[C@@H](CC(C)C)C(=O)N[C@@H](CO)C(=O)N[C@@H](CC(C)C)C(=O)N[C@@H](CC(=O)O)C(=O)N[C@@H](C(=O)N1CCC[C@H]1C(=O)N[C@H](C(=O)N[C@@H](CCCCN)C(=O)N[C@@H](CC(C)C)C(=O)N[C@@H](CCCCNC(=O)COCCOCCNC(=O)COCCOCCNC(=O)CC[C@H](NC(=O)CCCCCCCCCCCCCCCCC(=O)O)C(=O)O)C(=O)N[C@@H](CCC(N)=O)C(=O)N[C@H](C(=O)N[C@@H](CC(C)C)C(=O)N[C@@H](CC(C)C)C(=O)N[C@@H](CCCCN)C(=O)N[C@@H](CCC(N)=O)C(=O)N[C@@H](CCC(=O)O)C(=O)N[C@@H](CCCNC(=N)N)C(=O)N[C@@H](CCC(N)=O)C(=O)N[C@@H](CCCCN)C(=O)NC(C)(C)C(=O)N[C@@H](CCC(N)=O)C(=O)N[C@@H](CCCNC(=N)N)C(=O)N[C@@H](CCC(N)=O)C(=O)N[C@@H](CCC(N)=O)C(=O)N[C@@H](C)C(=O)N[C@@H](CCC(=O)O)C(=O)N[C@@H](CCCCN)C(=O)N[C@@H](CC(N)=O)C(=O)N[C@@H](CCCCN)C(=O)N[C@@H](CCC(N)=O)C(=O)N[C@H](C(=O)N[C@@H](CC(C)C)C(=O)N[C@@H](C)C(=O)N[C@@H](CCC(N)=O)C(=O)N[C@H](C(N)=O)C(C)C)[C@@H](C)CC)[C@@H](C)CC)[C@@H](C)CC)C(C)C)C(C)C` [compound 135] (H-IVLSLD[dV]PIKLK([AEEA-AEEA-γGlu-C18 diacid])QILLKQERQK[Aib]QRQQAEKNKQILAQV-NH2; N-terminus assumed), in data set [3], the half-maximal effective concentration (EC50) came out at 110 nM.

By bioavailability is commonly meant dose-corrected exposure relative to a reference, in per cent. The Cmax is the peak of the concentration-time curve. For orientation: half-life means the time in which the quantity being followed falls by half. The term AUC(0-t) denotes exposure summed from dosing to a finite time, without extrapolation to infinity. A high value points to more exposure. Broadly, the EC50 is the concentration needed to bring the measured effect to its halfway point. Read a high EC50 as weaker potency.
